What all share (format): functional, Homo sapiens
Holding throughout (set-up): dose or concentration left out as unconfirmed

For experiment [1], the system named is Colon cancer organoid. Briefly: Optimized Dual-Glo assay to identify co-culture induced drug vulnerabilities using donated chemical probes and chemogenomics kinase set in O14 CRC organoid and F14 CAF mono and co-culture. […] Cell viability is reported both mono and co-culture models.
Experiment [2] relates to Colon cancer organoid. Briefly: Optimized Dual-Glo assay to identify co-culture induced drug vulnerabilities using donated chemical probes and chemogenomics kinase set in O20 CRC organoid and F20 CAF mono and co-culture. […] Cell viability is reported both mono and co-culture models.
Experiment [3] relates to Colon cancer organoid. Put plainly: Optimized Dual-Glo assay to identify co-culture induced drug vulnerabilities using donated chemical probes and chemogenomics kinase set in O06 CRC organoid and F06 CAF mono and co-culture. […] Cell viability is reported both mono and co-culture models.
Setting [4] is: Culture type Co-Culture, Transduced with Lucferase2-P2A-EGFP lentivirus.
Where [5] appears, read: Culture type Co-Culture, Transduced with Renilla-dsRed lentivirus.
[6] abbreviates: Culture type Mono-Culture, Transduced with Lucferase2-P2A-EGFP lentivirus.
Setting [7] is: Culture type Mono-Culture, Transduced with Renilla-dsRed lentivirus.

The source of these data is ChEMBL document CHEMBL5674860, “Optimized Dual-Glo Assay to identify co-culture-induced drug vulnerabilities in 3D CRC models” (2024).

In the case of `CCOC(=O)c1c(/C(C#N)=C\N)c2ccc(Cl)c(Cl)c2n1C`, the “Cell Viability” value came to 135.947% in experiment [1] (setting [4]); 65.0868% in experiment [1] (setting [5]); 144.997% in experiment [1] (setting [6]); 76.1592% in experiment [1] (setting [7]); 92.1376% in experiment [2] (setting [4]); 87.4636% in experiment [2] (setting [5]). Moreover, the “Cell Viability” value in experiment [2] (setting [6]) was 163.638%; in experiment [2] (setting [7]), 89.5418%; in experiment [3] (setting [4]), 122.99%; in experiment [3] (setting [5]), 97.4073%; in experiment [3] (setting [6]), 58.62%; in experiment [3] (setting [7]) it was 82.6208%.

Consider `COc1cc2c(NC3CCN(C(C)C)CC3)nc(N3CCC(F)(F)CC3)nc2cc1OCCCN1CCCC1`, for which the “Cell Viability” value in experiment [1] (setting [4]) is on record as 56.1565%; in experiment [1] (setting [5]), 72.4133%; in experiment [1] (setting [6]) it was 84.8802%; in experiment [1] (setting [7]), 67.5673%; in experiment [2] (setting [4]), 136.034%; in experiment [2] (setting [5]), 132.743%. In addition, the “Cell Viability” value in experiment [2] (setting [6]) is recorded as 70.3827%; in experiment [2] (setting [7]), 53.0002%; in experiment [3] (setting [4]), 88.0521%; in experiment [3] (setting [5]), 104.162%; in experiment [3] (setting [6]), 44.5913%; in experiment [3] (setting [7]) it was 47.5732%.

`O=C(/C=C/N1C[C@H]2C[C@@H]1CN2c1ccccn1)c1ccccc1O`: the “Cell Viability” value amounted to 76.8483% in experiment [1] (setting [4]); 107.425% in experiment [1] (setting [5]); 87.3467% in experiment [1] (setting [6]); 104.591% in experiment [1] (setting [7]); 98.7098% in experiment [2] (setting [4]); 109.392% in experiment [2] (setting [5]). Moreover, the “Cell Viability” value is 120.989% in experiment [2] (setting [6]); 80.1119% in experiment [2] (setting [7]); 122.112% in experiment [3] (setting [4]); 121.159% in experiment [3] (setting [5]); 115.481% in experiment [3] (setting [6]); 98.9347% in experiment [3] (setting [7]).

Turning to `CCC(=O)N1CCOc2c(cc(-c3ccc(OC)c(OC)c3)cc2OCC2CCCN(C)C2)C1` (stereo not drawn), the “Cell Viability” value was 85.4363% in experiment [1] (setting [4]); 159.816% in experiment [1] (setting [5]); 85.7096% in experiment [1] (setting [6]); 112.054% in experiment [1] (setting [7]); 85.3108% in experiment [2] (setting [4]); 123.175% in experiment [2] (setting [5]). Further, the “Cell Viability” value in experiment [2] (setting [6]) came to 108.47%; in experiment [2] (setting [7]) it was 90.76%; in experiment [3] (setting [4]), 113.999%; in experiment [3] (setting [5]), 135.091%; in experiment [3] (setting [6]) it was 45.0129%; in experiment [3] (setting [7]) it was 100.645%.

On to `O=C(NCC(=O)N1CCCC1)Nc1ccc2cnccc2c1`, for which the “Cell Viability” value came out at 77.6259% in experiment [1] (setting [4]); 126.417% in experiment [1] (setting [5]); 75.4606% in experiment [1] (setting [6]); 109.537% in experiment [1] (setting [7]); 120.858% in experiment [2] (setting [4]); 100.064% in experiment [2] (setting [5]). Also, the “Cell Viability” value in experiment [2] (setting [6]) worked out at 123.325%; in experiment [2] (setting [7]), 84.2387%; in experiment [3] (setting [4]) it was 80.3687%; in experiment [3] (setting [5]), 124.064%; in experiment [3] (setting [6]), 84.4387%; in experiment [3] (setting [7]), 94.1078%.

In the case of `C=CC(=O)Nc1cccc(C(=O)Nc2ccc(Nc3cc(-c4[nH]c(SC)nc4C)ccn3)cc2)c1`, the “Cell Viability” value in experiment [1] (setting [4]) was 92.8618%; in experiment [1] (setting [5]) it was 104.149%; in experiment [1] (setting [6]) it was 127.049%; in experiment [1] (setting [7]), 88.1867%; in experiment [2] (setting [4]) it was 175.75%; in experiment [2] (setting [5]), 71.728%. Further, the “Cell Viability” value was found to be 133.783% in experiment [2] (setting [6]); 92.5554% in experiment [2] (setting [7]); 87.3077% in experiment [3] (setting [4]); 89.5907% in experiment [3] (setting [5]); 92.9694% in experiment [3] (setting [6]); 99.3546% in experiment [3] (setting [7]).

On to `Cc1cc2c(cc1N1C(=O)c3cccc4c(CCCO)ccc(c34)C1=O)n(C)c(=O)n2C`, for which the “Cell Viability” value in experiment [1] (setting [4]) is listed as 46.4165%; in experiment [1] (setting [5]) it was 127.225%; in experiment [1] (setting [6]), 64.4307%; in experiment [1] (setting [7]), 101.303%; in experiment [2] (setting [4]) it was 35.0091%; in experiment [2] (setting [5]), 231.762%. Further, the “Cell Viability” value was 20.745% in experiment [2] (setting [6]); 97.4451% in experiment [2] (setting [7]); 83.3962% in experiment [3] (setting [4]); 164.269% in experiment [3] (setting [5]); 66.8328% in experiment [3] (setting [6]); 103.172% in experiment [3] (setting [7]).

Consider `Cn1cc(CCn2cnc(-c3cnn(C)c3)c2-c2ccc(C#N)cc2)cn1`, for which the “Cell Viability” value is listed as 112.655% in experiment [1] (setting [4]); 89.8106% in experiment [1] (setting [5]); 89.6485% in experiment [1] (setting [6]); 97.1773% in experiment [1] (setting [7]); 162.016% in experiment [2] (setting [4]); 107.326% in experiment [2] (setting [5]). Besides, the “Cell Viability” value in experiment [2] (setting [6]) is 101.421%; in experiment [2] (setting [7]), 89.845%; in experiment [3] (setting [4]), 101.212%; in experiment [3] (setting [5]) it was 117.261%; in experiment [3] (setting [6]), 137.811%; in experiment [3] (setting [7]), 99.9578%.

For the molecule `CCN(CC)S(=O)(=O)Nc1cccc(-c2ccc3c(NC(=O)C4CC4)n[nH]c3c2)c1`, the “Cell Viability” value in experiment [1] (setting [4]) came to 132.967%; in experiment [1] (setting [5]), 105.386%; in experiment [1] (setting [6]), 144.3%; in experiment [1] (setting [7]), 103.503%; in experiment [2] (setting [4]), 76.1767%; in experiment [2] (setting [5]), 136.148%. Besides, the “Cell Viability” value in experiment [2] (setting [6]) came out at 110.502%; in experiment [2] (setting [7]), 120.639%; in experiment [3] (setting [4]), 95.7035%; in experiment [3] (setting [5]), 91.2372%; in experiment [3] (setting [6]), 90.915%; in experiment [3] (setting [7]), 111.432%.

`CC(C)C(=O)Nc1n[nH]c2cc(-c3cccc(NS(=O)(=O)C4CC4)c3)ccc12`: the “Cell Viability” value was 100.589% in experiment [1] (setting [4]); 100.218% in experiment [1] (setting [5]); 136.967% in experiment [1] (setting [6]); 94.5263% in experiment [1] (setting [7]); 85.5363% in experiment [2] (setting [4]); 102.387% in experiment [2] (setting [5]). For the same molecule, the “Cell Viability” value in experiment [2] (setting [6]) came to 113.542%; in experiment [2] (setting [7]), 124.62%; in experiment [3] (setting [4]) it was 155.711%; in experiment [3] (setting [5]), 134.333%; in experiment [3] (setting [6]) it was 107.561%; in experiment [3] (setting [7]), 124.696%.

`Clc1cc2c(NC3CCCC3)nnc(-c3ccncc3)c2cc1Cl`: the “Cell Viability” value was 74.2058% in experiment [1] (setting [4]); 99.3707% in experiment [1] (setting [5]); 72.2513% in experiment [1] (setting [6]); 106.405% in experiment [1] (setting [7]); 149.301% in experiment [2] (setting [4]); 128.6% in experiment [2] (setting [5]). Further, the “Cell Viability” value in experiment [2] (setting [6]) came to 80.485%; in experiment [2] (setting [7]), 77.3951%; in experiment [3] (setting [4]), 131.765%; in experiment [3] (setting [5]) it was 133.642%; in experiment [3] (setting [6]), 39.455%; in experiment [3] (setting [7]) it was 87.2375%.

Regarding `O=C(NC[C@H](O)CN1CCc2ccccc2C1)c1ccnc(NC2CCC2)c1`, the “Cell Viability” value in experiment [1] (setting [4]) is on record as 29.3409%; in experiment [1] (setting [5]) it was 134.373%; in experiment [1] (setting [6]) it was 40.919%; in experiment [1] (setting [7]) it was 88.6314%; in experiment [2] (setting [4]), 42.8317%; in experiment [2] (setting [5]) it was 143.569%. Besides, the “Cell Viability” value in experiment [2] (setting [6]) was determined as 53.6752%; in experiment [2] (setting [7]) it was 63.4646%; in experiment [3] (setting [4]), 33.1368%; in experiment [3] (setting [5]) it was 110.399%; in experiment [3] (setting [6]), 67.3977%; in experiment [3] (setting [7]), 84.1228%.

For the molecule `CN1C(=O)c2sccc2N(C)c2nc(Nc3ccc(S(N)(=O)=O)cc3)ncc21`, the “Cell Viability” value in experiment [1] (setting [4]) is listed as 32.5942%; in experiment [1] (setting [5]), 86.9407%; in experiment [1] (setting [6]), 37.7546%; in experiment [1] (setting [7]) it was 55.4366%; in experiment [2] (setting [4]), 36.1991%; in experiment [2] (setting [5]), 84.1947%. The “Cell Viability” value in experiment [2] (setting [6]) is on record as 15.0082%; in experiment [2] (setting [7]) it was 80.0783%; in experiment [3] (setting [4]), 23.972%; in experiment [3] (setting [5]) it was 57.2364%; in experiment [3] (setting [6]), 18.6697%; in experiment [3] (setting [7]), 40.4928%.

As for `Cl.O=C([C@@H](Cc1cccc(C(F)(F)F)c1)NS(=O)(=O)c1cc(F)c2c(c1)CCNC2)N1CCCC1`, the “Cell Viability” value in experiment [1] (setting [4]) stood at 99.1964%; in experiment [1] (setting [5]) it was 106.618%; in experiment [1] (setting [6]) it was 90.5758%; in experiment [1] (setting [7]), 109.686%; in experiment [2] (setting [4]), 152.168%; in experiment [2] (setting [5]) it was 150.248%. For the same molecule, the “Cell Viability” value in experiment [2] (setting [6]) is given as 145.099%; in experiment [2] (setting [7]), 80.4285%; in experiment [3] (setting [4]) it was 84.043%; in experiment [3] (setting [5]), 115.078%; in experiment [3] (setting [6]), 78.4722%; in experiment [3] (setting [7]), 93.27%.
